{"source": "ChEMBL document CHEMBL1800026", "about": "(Bioorg Med Chem, 2010)", "key": {"[1]": {"target": "T1, Beta-2 adrenergic receptor (Homo sapiens, UniProt P07550)", "T1 sequence (P07550 whole entry)": "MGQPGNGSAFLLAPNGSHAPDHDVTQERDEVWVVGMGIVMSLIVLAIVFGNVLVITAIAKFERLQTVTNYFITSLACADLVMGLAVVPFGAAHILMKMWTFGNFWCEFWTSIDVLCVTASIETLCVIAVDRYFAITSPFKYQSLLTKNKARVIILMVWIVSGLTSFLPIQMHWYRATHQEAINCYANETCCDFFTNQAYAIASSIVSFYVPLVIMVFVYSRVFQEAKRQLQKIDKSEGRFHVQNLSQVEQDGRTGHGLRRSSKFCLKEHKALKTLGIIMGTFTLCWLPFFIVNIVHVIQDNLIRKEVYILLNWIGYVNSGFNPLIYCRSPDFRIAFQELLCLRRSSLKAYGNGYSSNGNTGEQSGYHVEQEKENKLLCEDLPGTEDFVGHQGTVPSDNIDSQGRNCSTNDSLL", "assay": "Displacement of [3H]CGP-12177 from human beta2-adrenergic receptor expressed in HEK 293 cells", "format": "cell-based, HEK293"}, "[2]": {"target": "Beta-1 adrenergic receptor (Rattus norvegicus, UniProt P18090)", "sequence (P18090 whole entry)": "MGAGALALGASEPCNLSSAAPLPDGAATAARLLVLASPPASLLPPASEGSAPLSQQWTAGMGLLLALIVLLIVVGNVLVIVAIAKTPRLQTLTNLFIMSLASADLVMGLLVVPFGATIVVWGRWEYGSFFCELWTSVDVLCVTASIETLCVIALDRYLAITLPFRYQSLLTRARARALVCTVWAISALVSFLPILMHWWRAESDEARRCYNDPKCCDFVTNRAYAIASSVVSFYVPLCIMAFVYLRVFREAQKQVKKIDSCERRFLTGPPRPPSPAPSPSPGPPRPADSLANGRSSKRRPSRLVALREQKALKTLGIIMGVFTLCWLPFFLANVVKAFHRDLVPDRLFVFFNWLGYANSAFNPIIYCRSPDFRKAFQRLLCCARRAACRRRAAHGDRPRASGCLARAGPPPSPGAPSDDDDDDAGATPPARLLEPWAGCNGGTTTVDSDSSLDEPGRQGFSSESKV", "assay": "Displacement of [3H]CGP-12177 from beta1-adrenergic receptor in Sprague-Dawley rat cortical membrane after 2 hrs"}, "[3]": {"assay": "Selectivity ratio of Ki for beta1-adrenergic receptor in Sprague-Dawley rat cortical membrane to Ki for human beta2-adrenergic receptor"}, "[4]": {"target": "Beta-2 adrenergic receptor (Rattus norvegicus) (UniProt P10608)", "sequence (P10608 whole entry, looked up)": "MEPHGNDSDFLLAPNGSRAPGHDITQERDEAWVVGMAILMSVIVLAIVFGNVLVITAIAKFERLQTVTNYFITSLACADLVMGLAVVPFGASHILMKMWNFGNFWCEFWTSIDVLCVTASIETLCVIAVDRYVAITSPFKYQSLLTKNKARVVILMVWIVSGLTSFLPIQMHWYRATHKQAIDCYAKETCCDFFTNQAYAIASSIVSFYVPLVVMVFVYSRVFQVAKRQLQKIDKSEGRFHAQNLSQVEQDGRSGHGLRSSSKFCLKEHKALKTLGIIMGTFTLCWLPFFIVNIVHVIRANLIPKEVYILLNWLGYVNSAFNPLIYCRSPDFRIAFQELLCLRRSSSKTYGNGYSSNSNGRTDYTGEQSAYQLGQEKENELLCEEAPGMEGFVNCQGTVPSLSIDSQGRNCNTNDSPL", "assay": "Agonist activity beta2-adrenergic receptor in rat ventricular myocytes assessed as cell contraction following electrical stimulation by optical edge tracking method using photodiode array in presence of receptor antagonist ICI 118551", "format": "functional, cell-based"}, "[5]": {"target": "Beta-2 adrenergic receptor (Rattus norvegicus) (UniProt P10608)", "assay": "Agonist activity beta2-adrenergic receptor in rat ventricular myocytes assessed as cell contraction following electrical stimulation by optical edge tracking method using photodiode array in presence of receptor agonist zinterol", "format": "functional, cell-based"}, "[6]": {"target": "T1, Beta-2 adrenergic receptor", "assay": "Displacement of [125I]-CYP from human beta2-adrenergic receptor expressed in COS-7 cells by gamma counting", "format": "cell-based"}, "[7]": {"target": "Beta-1 adrenergic receptor (Homo sapiens, UniProt P08588)", "sequence (P08588 whole entry)": "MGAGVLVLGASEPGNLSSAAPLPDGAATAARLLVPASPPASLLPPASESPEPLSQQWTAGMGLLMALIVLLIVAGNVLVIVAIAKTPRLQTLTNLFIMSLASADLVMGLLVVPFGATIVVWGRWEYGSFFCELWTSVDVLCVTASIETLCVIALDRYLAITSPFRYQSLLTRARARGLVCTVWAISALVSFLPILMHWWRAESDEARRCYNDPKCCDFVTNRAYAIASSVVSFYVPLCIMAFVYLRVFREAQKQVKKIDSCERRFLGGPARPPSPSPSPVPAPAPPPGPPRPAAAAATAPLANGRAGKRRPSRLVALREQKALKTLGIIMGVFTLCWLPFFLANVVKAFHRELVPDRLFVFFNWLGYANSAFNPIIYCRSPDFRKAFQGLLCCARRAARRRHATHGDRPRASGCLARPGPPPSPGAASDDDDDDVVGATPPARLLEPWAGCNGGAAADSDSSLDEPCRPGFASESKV", "assay": "Displacement of [125I]-CYP from human beta1-adrenergic receptor expressed in COS-7 cells by gamma counting", "format": "cell-based"}, "Homo sapiens": {"species": "Homo sapiens", "assay": "Selectivity ratio of Ki for human beta1-adrenergic receptor to Ki human beta2-adrenergic receptor"}}, "note": "Calls of active or inactive are those of the source. No cut-off for these calls is given here.", "data": [{"smiles": "CC[C@@H](Cc1ccc(O)cc1)NC[C@H](O)c1cc(O)cc(O)c1", "note": "(racemic)", "values": [{"measurement": "Ki", "setting": "[1]", "value": 5.76, "unit": "µM"}, {"measurement": "Ki", "setting": "[2]", "value": 117, "unit": "µM"}, {"measurement": "Ratio Ki", "setting": "[3]", "value": 20}]}, {"smiles": "CC[C@H](Cc1ccc(O)cc1)NC[C@H](O)c1cc(O)cc(O)c1", "values": [{"measurement": "Ki", "setting": "[1]", "value": 1.27, "unit": "µM"}, {"measurement": "Ki", "setting": "[2]", "value": 424, "unit": "µM"}, {"measurement": "Ratio Ki", "setting": "[3]", "value": 334}, {"measurement": "Activity", "setting": "[4]", "value": "inactive"}, {"measurement": "Activity", "setting": "[5]", "value": "Active"}]}, {"smiles": "COc1ccc(C[C@H](C)NC[C@H](O)c2cc(O)cc(O)c2)c2ccccc12", "note": "(racemic)", "values": [{"measurement": "Ki", "setting": "[2]", "value": 14.8, "unit": "µM"}]}, {"smiles": "C[C@H](Cc1ccc2ccccc2c1)NC[C@H](O)c1cc(O)cc(O)c1", "values": [{"measurement": "Ki", "setting": "[2]", "value": 16.6, "unit": "µM"}]}, {"smiles": "C[C@@H](Cc1ccc2ccccc2c1)NC[C@H](O)c1cc(O)cc(O)c1", "values": [{"measurement": "Ki", "setting": "[2]", "value": 27.1, "unit": "µM"}]}, {"smiles": "OCc1cc(C(O)CNCCCCCCCCCCCc2ccccc2)ccc1O", "note": "(stereo not given)", "values": [{"measurement": "Ki", "setting": "[6]", "value": 0.22, "unit": "µM"}, {"measurement": "Ki", "setting": "[7]", "value": 2.3, "unit": "µM"}, {"measurement": "Ratio Ki", "setting": "Homo sapiens", "value": 10}]}, {"smiles": "COc1ccc(C[C@@H](C)NC[C@H](O)c2cc(O)cc(O)c2)c2ccccc12", "values": [{"measurement": "Ki", "setting": "[2]", "value": 161, "unit": "µM"}]}]}
